Assay results from patent publication US9643967B2, “Pyrrolo[3,2-c]pyridine derivatives as TLR inhibitors” (TAKEDA PHARMACEUTICAL COMPANY LIMITED, priority 2013, dated 2017).
Read-outs that look alike come from different tables or passages of the source.

Biological target: T1, mTLR9 (Mus musculus, UniProt Q9EQU3)
T1 construct: Splenocytes isolated from male C57/BL6 mice; from tissue; host or cells: splenocytes from the spleen of male C57BL/6 mice
T1 sequence (Q9EQU3 26-1032): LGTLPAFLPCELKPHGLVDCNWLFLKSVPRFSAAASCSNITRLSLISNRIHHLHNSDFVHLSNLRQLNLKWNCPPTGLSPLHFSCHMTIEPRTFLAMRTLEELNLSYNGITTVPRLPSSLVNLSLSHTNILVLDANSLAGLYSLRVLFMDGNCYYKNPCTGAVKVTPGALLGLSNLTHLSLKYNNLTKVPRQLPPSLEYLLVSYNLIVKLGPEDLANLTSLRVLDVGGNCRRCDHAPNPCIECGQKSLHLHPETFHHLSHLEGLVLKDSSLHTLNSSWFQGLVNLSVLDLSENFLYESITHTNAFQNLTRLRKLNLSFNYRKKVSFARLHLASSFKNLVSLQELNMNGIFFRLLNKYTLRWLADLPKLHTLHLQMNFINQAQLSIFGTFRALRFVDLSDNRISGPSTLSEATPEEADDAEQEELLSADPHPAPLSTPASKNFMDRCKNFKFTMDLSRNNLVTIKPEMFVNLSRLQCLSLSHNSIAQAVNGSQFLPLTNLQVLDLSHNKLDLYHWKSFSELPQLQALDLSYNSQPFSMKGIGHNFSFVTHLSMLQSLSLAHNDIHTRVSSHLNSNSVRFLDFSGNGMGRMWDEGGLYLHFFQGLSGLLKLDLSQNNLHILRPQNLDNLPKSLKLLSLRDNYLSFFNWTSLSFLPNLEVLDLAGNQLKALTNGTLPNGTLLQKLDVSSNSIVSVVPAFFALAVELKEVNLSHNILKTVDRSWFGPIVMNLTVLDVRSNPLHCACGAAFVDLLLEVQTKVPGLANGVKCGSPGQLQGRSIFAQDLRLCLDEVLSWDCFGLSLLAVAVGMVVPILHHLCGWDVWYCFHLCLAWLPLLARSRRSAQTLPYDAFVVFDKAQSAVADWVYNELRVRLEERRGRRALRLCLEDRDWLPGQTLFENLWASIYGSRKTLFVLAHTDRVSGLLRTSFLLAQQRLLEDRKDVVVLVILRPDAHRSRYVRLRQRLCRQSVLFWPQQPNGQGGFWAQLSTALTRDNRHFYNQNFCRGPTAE
Test: mTLR9 antagonism (IL-6 and TNF-α release assay) in mouse splenocytes, CpG ODN-2006 stimulated
Assay type: cell-based
Conditions: 1 μM, mouse splenocytes
From the text: mTLR9 and mTLR7 Antagonism (Cytokine Release Assay) in Mouse Splenocytes
TLR7 ligand R0006 (IDT, 5′-rU*rU*rG*rU*rU*rG*rU*rU*rG*rU*rU*rG*rU*rU*rG*rU*rU*rG*rU*rU-3′ (SEQ ID NO:1)), Liposomal transfection reagent—DOTAP (Roche, Cat. No. 11202375001), TLR9 ligand CpG ODN2006 (Sequence: T*C*G*T*C*G*T*T*T*T*G*T*C*G*T*T*T*T*G*T*C*G*T*T; *=phosphorothioate (SEQ ID NO:2)) DMSO (Sigma, D2650), RPMI Powder (Sigma, R6504), Fetal Bovine Serum (Gibco, 10270), Dulbecco's Phosphate Buffered Saline (Sigma, D1408), 96 well plate (Flat bottom, Costar 3599), ELISA kit for IL-6 (EBioscience, 88-7064-77 and TNFa (EBioscience, 88-7346-88), MACS Buffer (AutoMACS Rinsing Solution (Miltenyl Biotec, 130-091-222)+0.05% BSA), RBC lysis buffer (0.85% NH4Cl), 40 μm cell strainer (BD Falcon, 352340) Method: A. Isolation of Mouse Splenocytes
Mouse spleen was isolated from C57BL6 mouse and stored in 1× chilled PBS buffer until further processed. Spleen was transferred to a sterile petriplate and chopped in to 5-6 pieces in presence of MACS buffer (100 μl) with the help of fresh surgical blade and crushed with flat plunger of a sterile syringe. A uniform suspension was prepared by passing cells through a 40 μm cell strainer. Cells were centrifuged at 450×g for 5 minutes at 4° C., supernatant was discarded and pellet dislodged gently, resuspended in 2 ml of pre-warmed (37° C.) RBC lysis buffer at room temperature with continuous gentle mixing with 1 ml pipette. Lysis buffer was neutralized with 12 ml of chilled MACS buffer and cells were passed through 40 μm cell strainer. Cell suspension was collected in 15 ml MACS buffer and centrifuged at 450×g for 5 minutes at 4° C. Pellet was resuspended in 15 ml MACS buffer and centrifuged at 400×g for 5 minutes. Cells were resuspended in 10 ml of RPMI complete medium and viability was estimated by Trypan blue method.
mTLR9 Antagonism (IL-6 and TNF-α Release Assay):
500 μM stock of CpG ODN-2006 was prepared in sterile, endotoxin-free water. Dilutions of 10× concentrations of NCEs were prepared in incomplete RPMI media, maintaining a final DMSO concentration of 0.3%. NCEs were added in a concentration range of 30 μM to 1 nM in respective wells of assay plate, assay medium containing 0.3% DMSO were added to control wells. 0.2 million splenocytes were added to all the wells and incubated at 37° C. in 5% CO2 incubator for 30 minutes. 1 μg/ml of respective agonist was added to all the wells except those were assigned as negative controls and mixed thoroughly. Incomplete RPMI was added to negative control wells and incubated overnight at 37° C./5% CO2. The plate was centrifuged at 450×g for 5 minutes at room temperature and the supernatant was collected. ELISA was performed as per manufacturer's protocol. S/B Ratio, % Activity and % Inhibition was calculated using MS Excel. IC50 and inhibition curve was generated using Graph Pad Prism.

[1] = TNF-α release, read-out: mTLR9 inhibitory activity (% at 1 μM), TNF-α
[2] = IL-6 release, read-out: mTLR9 inhibitory activity (% at 1 μM), IL-6

Row | inhibition at 1 µM [1] [%] | inhibition at 1 µM [2] [%] | Structure (SMILES)
1 | 41 | 84 | c1cc2[nH]c(CN3CCOCC3)cc2c(-c2ccc(N3CCNCC3)cc2)n1 [Example A42, 4-[[4-(4-(piperazin-1-yl)phenyl)-1H-pyrrolo[3,2-c]pyridin-2-yl]methyl] morpholine]
2 | 80 | 100 | CC(C)N1CCN(c2ccc(-c3nccc4[nH]c(CN5CCOCC5)cc34)cn2)CC1 [Example A53, 4-[[4-[6-(4-isopropylpiperazin-1-yl)-3-pyridyl]-1H-pyrrolo[3,2-c]pyridin-2-yl]methyl]morpholine]
3 | 0 | – | CC(C)N1CCC(n2cc(-c3nccc4[nH]c(CN5CCOCC5)cc34)cn2)CC1 [Example A54, 4-[[4-[1-(1-isopropyl-4-piperidyl)pyrazol-4-yl]-1H-pyrrolo[3,2-c]pyridin-2-yl]methyl]morpholine]
4 | 59 | 96 | CC(C)N1CCN(Cc2ccc(-c3nccc4[nH]c(CN5CCOCC5)cc34)cc2)CC1 [Example A55, 4-[[4-[4-[(4-isopropylpiperazin-1-yl)methyl]phenyl]-1H-pyrrolo[3,2-c]pyridin-2-yl]methyl]morpholine]
5 | 71 | – | CC(C)N1CCC(Oc2ccc(-c3nccc4[nH]c(CN5CCOCC5)cc34)cc2)CC1 [Example A56, 4-[[4-[4-[(1-isopropyl-4-piperidyl)oxy]phenyl]-1H-pyrrolo[3,2-c]pyridin-2-yl]methyl]morpholine]
6 | 34 | 100 | CC(C)N1CCN(c2cccc(-c3nccc4[nH]c(CN5CCOCC5)cc34)c2)CC1 [Example A57, 4-[[4-[3-(4-isopropylpiperazin-1-yl)phenyl]-1H-pyrrolo[3,2-c]pyridin-2-yl]methyl]morpholine]

More lines, now with the values behind:

Row | Structure (SMILES) | inhibition at 1 µM [1] [%] | inhibition at 1 µM [2] [%]
7 | Cc1nc(-c2ccc(N3CCN(C)CC3)cc2)c2cc(CN3CCOCC3)[nH]c2c1C [Example A37, 4-[[6,7-dimethyl-4-[4-(4-methylpiperazin-1-yl)phenyl]-1H-pyrrolo[3,2-c]pyridin-2-yl]methyl] morpholine] | 100 | –
8 | CCN1CCN(c2ccc(-c3nc(C)c(C)c4[nH]c(CN5CCOCC5)cc34)cc2)CC1 [Example A38, 4-[[4-[4-(4-ethylpiperazin-1-yl)phenyl]-6,7-dimethyl-1H-pyrrolo[3,2-c]pyridin-2-yl]methyl] morpholine] | 100 | 100
9 | Cc1nc(-c2ccc(N3CCN(C(C)C)CC3)cc2)c2cc(CN3CCCCC3)[nH]c2c1C [Example A39, 4-[4-(4-isopropylpiperazin-1-yl)phenyl]-6,7-dimethyl-2-(1-piperidylmethyl)-1H-pyrrolo[3,2-c]pyridine] | 100 | –
10 | Cc1nc(-c2ccc(N3CCN(C(C)C)CC3)cc2)c2cc(CN3CCCC3)[nH]c2c1C [Example A40, 4-[4-(4-isopropylpiperazin-1-yl)phenyl]-6,7-dimethyl 2-(pyrrolidin-1-ylmethyl)-1H-pyrrolo[3,2-c)pyridine] | 100 | –
11 | c1cc2[nH]c(CN3CCOCC3)cc2c(-c2ccc(OC3CCNCC3)cc2)n1 [Example A49, 4-[[4-[4-(4-piperidyloxy)phenyl]-1H-pyrrolo[3,2-c]pyridin-2-yl]methyl]morpholine] | 15 | 65
12 | Cc1cc2[nH]c(CN3CCOCC3)cc2c(-c2ccc(C3CCN(C(C)C)CC3)cc2)n1 [Example A51, 4-[[4-[4-(1-isopropyl-4-piperidyl)phenyl]-6-methyl-1H-pyrrolo[3,2-c]pyridin-2-yl]methyl]morpholine] | 90 | 100
13 | CC(C)N1CC=C(c2ccc(-c3nccc4[nH]c(CN5CCOCC5)cc34)cn2)CC1 [Example A52, 4-[[4-[6-(1-isopropyl-3,6-dihydro-2H-pyridin-4-yl)-3-pyridyl]-1H-pyrrolo[3,2-c]pyridin-2-yl]methyl]morpholine] | 29 | 100
